Reference: patent US8906911B2, “Chemokine receptor antagonists” (AbbVie Inc., priority 2012, dated 2014)
Read-outs that look alike come from different tables or passages of the source.

Legend:
human CCR2B [1] = molecular target: T1, human CCR2B (Homo sapiens (Human), UniProt P41597); experiment: Inhibition of native agonist (human MCP-1)-induced intracellular calcium release, calcium flux assay in CHO cells expressing human CCR2B and Gα16; format: cell-based; conditions: for IC50: read-out: hCCR2B IC50; for Kb: read-out: hCCR2B Kb
T1 sequence (P41597 other isoform, or with tags, fused parts or gaps): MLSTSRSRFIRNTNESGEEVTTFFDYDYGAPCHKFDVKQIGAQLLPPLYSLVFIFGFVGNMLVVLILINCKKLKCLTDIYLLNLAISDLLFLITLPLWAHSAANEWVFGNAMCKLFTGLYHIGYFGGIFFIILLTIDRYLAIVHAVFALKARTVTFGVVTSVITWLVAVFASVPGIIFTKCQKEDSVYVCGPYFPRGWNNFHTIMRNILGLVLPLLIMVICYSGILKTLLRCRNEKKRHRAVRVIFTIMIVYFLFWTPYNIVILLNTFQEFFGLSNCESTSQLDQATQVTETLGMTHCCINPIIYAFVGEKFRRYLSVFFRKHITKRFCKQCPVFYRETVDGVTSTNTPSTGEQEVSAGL
In short: (§1)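 Compound added to Calcium 4 dye-loaded adherent cells (dye loading 60 min, 37° C., HEPES pH 7.4 buffer with probenecid), then agonist: human MCP-1 at 2 nM final for hCCR2B cells, rat MCP-1 at 4 nM final for rCCR2 cells. FLIPR fluorescence change gave IC50. Kb=IC50/(1+[agonist]/EC50). Final DMSO 0.25%.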

rat CCR2 = rat CCR2 (Rattus norvegicus (Rat), UniProt O55193); experiment: Inhibition of native agonist (rat MCP-1)-induced intracellular calcium release, calcium flux assay in CHO cells expressing rat CCR2 and Gα16; format: cell-based; conditions: read-out: rCCR2 Kb
Chain of rat CCR2 (O55193 whole entry): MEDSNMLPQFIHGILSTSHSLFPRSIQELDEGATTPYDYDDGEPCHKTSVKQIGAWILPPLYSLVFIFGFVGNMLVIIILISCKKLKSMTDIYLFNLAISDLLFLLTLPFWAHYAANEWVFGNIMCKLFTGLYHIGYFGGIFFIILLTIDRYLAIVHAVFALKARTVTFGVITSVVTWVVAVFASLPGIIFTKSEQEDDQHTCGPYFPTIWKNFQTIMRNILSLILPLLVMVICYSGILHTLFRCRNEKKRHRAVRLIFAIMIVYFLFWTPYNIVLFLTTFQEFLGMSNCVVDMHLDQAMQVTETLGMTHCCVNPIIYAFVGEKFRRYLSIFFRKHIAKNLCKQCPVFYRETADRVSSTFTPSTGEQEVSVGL
In short: as §1

human CCR2B [2] = molecular target: T1, human CCR2B; experiment: Inhibition of [125I]-labeled MCP-1 binding to hCCR2B (radioligand binding in CHO cells); conditions: mean Ki; [125I]-MCP-1 50 pM; CHO cells expressing human CCR2B and Gα16
Text: CHO cells expressing human CCR2B were generated as follows. cDNA for human CCR2B (cloned from human blood) was cloned into plasmid pcDNA3.1 (from Invitrogen). The resulting plasmids were separately transfected into CHO cells expressing human Gα16 (from Molecular Devices). […] CHO cells expressing rat CCR2 were generated as follows. cDNA for rat CCR2 (cloned from rat macrophage) was cloned into plasmid pEF-flag (from Chinese Academy of Science). The resulting plasmids were transfected into CHO cells expressing human Gα16 (from […]).
Inhibition of [^125I]-Labeled MCP-1 Binding to hCCR2B
Radioligand binding assays were performed in CHO cells expressing human CCR2B and Gα16 coupling protein. All compounds were dissolved in DMSO and assays run at a final DMSO concentration of 0.5% (v/v). [^125I]-labeled human MCP-1 was purchased from PerkinElmer. Unlabelled human MCP-1 was purchased from PeproTech.
Compounds were serially diluted in DMSO before diluting into assay buffer (25 mM HEPES, pH 7.4, 5 mM MgCl2, 1 mM CaCl2, 0.5% BSA) with cryo preserved CHO cells expressing human CCR2B and the Gα16 coupling protein (30×10^3/well) and [^125I]-MCP-1 (50 pM). The reaction was incubated at room temperature for 90 minutes before transferring to GF/C filter membrane (PerkinElmer) pre-treated with 0.3% polyethyleneimine for 2 hours at 4° C. The filter membrane was washed six times with ice cold wash buffer (25 mM HEPES, pH 7.4, 5 mM MgCl2, 1 mM CaCl2, 500 mM NaCl, 0.01% (m/v) azide), dried, and sealed in a RLB sample bag (Agilent Technologies) before adding 5.0 mL Microscint 20 to each bag. Membrane was counted on Microbeta counter where background binding was determined by the presence of 100 nM MCP-1 and control total binding was determined by addition of DMSO in place of the test compound. The radioactivity values (cpm) were used to calculate the percent inhibition at a given compound concentration and the data fit to a sigmoidal curve in a semi-log plot to determine IC50 values. The corresponding Ki value is calculated as follows:
Ki=IC50/(1+[radioligand]/Kd), where [radioligand] is the concentration of the label and Kd (dissociation constant) is determined in saturation experiment with different concentrations of labeled MCP-1.

| IC50 (human CCR2B [1]; calcium flux, human MCP-1 2 nM) [nM] | Structure (SMILES) | Kb (human CCR2B [1]) [nM] | Kb (rat CCR2) [nM] | Ki (human CCR2B [2]) [nM] | IC50 (human CCR2B [1]) [nM] |
| --- | --- | --- | --- | --- | --- |
| 19.8 | CO[C@@H]1COCC[C@@H]1N[C@@H]1C[C@H]2CCC[C@@]2(C(=O)N2C[C@@H]3C[C@H]2CN3c2cc(C(F)(F)F)ccc2C#N)C1 [Example 28, 1,5-anhydro-3-{[(2R,3aR,6aR)-3a-({(1S,4S)-5-[2-cyano-5-(trifluoromethyl)phenyl]-2,5-diazabicyclo[2.2.1]hept-2-yl}carbonyl)octahydropentalen-2-yl]amino}-2,3-dideoxy-4-O-methyl-D-erythro-pentitol] | 5 | 5 | 32 | – |
| 148 | CO[C@@H]1COCC[C@@H]1N[C@@H]1C[C@H]2CCC[C@@]2(C(=O)N2C[C@@H]3C[C@H]2CN3c2cccc(OC(F)(F)F)c2)C1 [Example 29, 1,5-anhydro-2,3-dideoxy-4-O-methyl-3-{[(2R,3aR,6aR)-3a-({(1S,4S)-5-[3-(trifluoromethoxy)phenyl]-2,5-diazabicyclo[2.2.1]hept-2-yl}carbonyl)octahydropentalen-2-yl]amino}-D-erythro-pentitol] | 36 | 8 | 473 | – |
| 95.5 | CO[C@@H]1COCC[C@@H]1N[C@@H]1C[C@H]2CCC[C@@]2(C(=O)N2C[C@@H]3C[C@H]2CN3c2nc(C(F)(F)F)cs2)C1 [Example 30, 1,5-anhydro-2,3-dideoxy-4-O-methyl-3-{[(2R,3aR,6aR)-3a-({(1S,4S)-5-[4-(trifluoromethyl)-1,3-thiazol-2-yl]-2,5-diazabicyclo[2.2.1]hept-2-yl}carbonyl)octahydropentalen-2-yl]amino}-D-erythro-pentitol] | 23 | 4 | 831 | – |
| 314 | CO[C@@H]1COCC[C@@H]1N[C@@H]1C[C@H]2CCC[C@@]2(C(=O)N2C[C@@H]3C[C@H]2CN3c2ncc(C(F)(F)F)cc2Cl)C1 [Example 32, 1,5-anhydro-3-{[(2R,3aR,6aR)-3a-({(1S,4S)-5-[3-chloro-5-(trifluoromethyl)pyridin-2-yl]-2,5-diazabicyclo[2.2.1]hept-2-yl}carbonyl)octahydropentalen-2-yl]amino}-2,3-dideoxy-4-O-methyl-D-erythro-pentitol] | 77 | 44 | 1060 | – |
| 305 | CO[C@@H]1COCC[C@@H]1N[C@@H]1C[C@H]2CCC[C@@]2(C(=O)N2C[C@@H]3C[C@H]2CN3c2cc(C#N)ccc2C(F)(F)F)C1 [Example 36, 1,5-anhydro-3-{[(2R,3aR,6aR)-3a-({(1S,4S)-5-[5-cyano-2-(trifluoromethyl)phenyl]-2,5-diazabicyclo[2.2.1]hept-2-yl}carbonyl)octahydropentalen-2-yl]amino}-2,3-dideoxy-4-O-methyl-D-erythro-pentitol] | 75 | 24 | 1060 | – |
| 41.5 | CO[C@@H]1COCC[C@@H]1N[C@@H]1C[C@H]2CCC[C@@]2(C(=O)N2C[C@@H]3C[C@H]2CN3c2ccc(Cl)c(Cl)c2)C1 [Example 40, 1,5-anhydro-2,3-dideoxy-3-{[(2R,3aR,6aR)-3a-{[(1S,4S)-5-(3,4-dichlorophenyl)-2,5-diazabicyclo[2.2.1]hept-2-yl]carbonyl}octahydropentalen-2-yl]amino}-4-O-methyl-D-erythro-pentitol] | 10 | 3 | 38 | – |
| – | CO[C@@H]1COCC[C@@H]1N[C@@H]1C[C@H]2CCC[C@@]2(C(=O)N2C[C@@H]3C[C@H]2CN3c2ccc(Cl)c(C#N)c2)C1 [Example 47, 1,5-anhydro-3-{[(2R,3aR,6aR)-3a-{[(1S,4S)-5-(4-chloro-3-cyanophenyl)-2,5-diazabicyclo[2.2.1]hept-2-yl]carbonyl}octahydropentalen-2-yl]amino}-2,3-dideoxy-4-O-methyl-D-erythro-pentitol] | 12 | 4 | 77 | 49.8 |
| – | N#Cc1ccc(C(F)(F)F)cc1N1C[C@@H]2C[C@H]1CN2C(=O)[C@@]12CCC[C@@H]1C[C@@H](N1CCC(c3ccccc3)CC1)C2 [Example 48, 2-[(1S,4S)-5-{[(2R,3aR,6aR)-2-(4-phenylpiperidin-1-yl)hexahydropentalen-3a(1H)-yl]carbonyl}-2,5-diazabicyclo[2.2.1]hept-2-yl]-4-(trifluoromethyl)benzonitrile] | 13 | 17 | 8 | 51.8 |
| – | O=C(N1C[C@@H]2C[C@H]1CN2c1cc(C(F)(F)F)ccn1)[C@@]12CCC[C@@H]1C[C@@H](N1CCC(c3ccccc3)CC1)C2 [Example 49, [(2R,3aR,6aR)-2-(4-phenylpiperidin-1-yl)hexahydropentalen-3a(1H)-yl]{(1S,4S)-5-[4-(trifluoromethyl)pyridin-2-yl]-2,5-diazabicyclo[2.2.1]hept-2-yl}methanone] | 9 | 23 | 15 | 37 |
| – | CO[C@@H]1COCC[C@@H]1N[C@@H]1C[C@H]2CCC[C@@]2(C(=O)N2C[C@@H]3C[C@H]2CN3c2cc(C(F)(F)F)ccc2C(F)(F)F)C1 [Example 50, 1,5-anhydro-3-{[(2R,3aR,6aR)-3a-({(1S,4S)-5-[2,5-bis(trifluoromethyl)phenyl]-2,5-diazabicyclo[2.2.1]hept-2-yl}carbonyl)octahydropentalen-2-yl]amino}-2,3-dideoxy-4-O-methyl-D-erythro-pentitol] | 6 | 6 | 78 | 25.9 |
| – | CO[C@@H]1COCC[C@@H]1N(C)[C@@H]1C[C@H]2CCC[C@@]2(C(=O)N2C[C@@H]3C[C@H]2CN3c2cc(C(F)(F)F)ccc2C(F)(F)F)C1 [Example 52, 1,5-anhydro-3-{[(2R,3aR,6aR)-3a-({(1S,4S)-5-[2,5-bis(trifluoromethyl)phenyl]-2,5-diazabicyclo[2.2.1]hept-2-yl}carbonyl)octahydropentalen-2-yl](methyl)amino}-2,3-dideoxy-4-O-methyl-D-erythro-pentitol] | 21 | 38 | 49 | 83.9 |
| – | CO[C@@H]1COCC[C@@H]1N(C)[C@@H]1C[C@H]2CCC[C@@]2(C(=O)N2C[C@@H]3C[C@H]2CN3c2cc(C(F)(F)F)ccc2C#N)C1 [Example 53, 1,5-anhydro-3-{[(2R,3aR,6aR)-3a-({(1S,4S)-5-[2-cyano-5-(trifluoromethyl)phenyl]-2,5-diazabicyclo[2.2.1]hept-2-yl}carbonyl)octahydropentalen-2-yl](methyl)amino}-2,3-dideoxy-4-O-methyl-D-erythro-pentitol] | 12 | 26 | 16 | 47.9 |

| Structure (SMILES) | IC50 (human CCR2B [1]; calcium flux, human MCP-1 2 nM) [nM] | Kb (human CCR2B [1]) [nM] | Kb (rat CCR2) [nM] | Ki (human CCR2B [2]) [nM] | IC50 (human CCR2B [1]) [nM] |
| --- | --- | --- | --- | --- | --- |
| CO[C@@H]1COCC[C@@H]1N(C)[C@@H]1C[C@H]2CCC[C@@]2(C(=O)N2C[C@@H]3C[C@H]2CN3c2ccc(Cl)c(C(F)(F)F)c2)C1 [Example 51, 1,5-anhydro-3-{[(2R,3aR,6aR)-3a-({(1S,4S)-5-[4-chloro-3-(trifluoromethyl)phenyl]-2,5-diazabicyclo[2.2.1]hept-2-yl}carbonyl)octahydropentalen-2-yl](methyl)amino}-2,3-dideoxy-4-O-methyl-D-erythro-pentitol] | 43.3 | 11 | 29 | 21 | – |
